Entries after “also recorded” stand apart in the source; their conditions may differ.
How the values were obtained:
SMO-A459V = biological target: T1, SMO-A459V (Homo sapiens, UniProt Q99835, A459V); assay: Gli-luciferase based Hh reporter assay in C3H10T½ cells transfected with SMO constructs; assay type: cell-based, mouse; conditions: GLI1 luciferase reporter, FIGS. 5A-5C
T1 construct: expressed in transfected cells; host or cells: C3H10T½ cells (mouse)
Method: (§1) SMO mutants were generated in pRK5-SMO vectors as described (Dijkgraaf et al., 2011; Yauch et al., 2009) and were either utilized in Gli-luciferase reporter assays as described (Dijkgraaf et al., 2011) or cloned into lentiviral vectors for transduction of primary CGNP cultures. Proliferation was assayed using methyl-[3H]-thymidine incorporation (Kool et al., 2014).
(§2) C3H10T½ cells (ATCC) were seeded into six-well plates at 1.75×10E5 cells/well in DMEM High Glucose with 4 mM glutamine, 10 mM Hepes pH 7.2 and 10% FBS. After 16 h cells were transfected with 400 ng of expression construct, 400 ng of 9×-Gli-BS and 200 ng of pRL-TK per well using GeneJuice Transfection Reagent (Novagen). For the PTCH1 inhibition experiments, cells were transfected with 200 ng SMO expression construct and an additional 200 ng of DNA containing varying ratios of PTCH1 to empty vector. Six hours later, cells from one well were trypsinized and redistributed over four wells of a 12-well plate. After 16 hours the FBS content of the culture medium was reduced to 0.5% to induce formation of primary cilia, and small molecule Hh inhibitors were added at indicated concentrations. Firefly luciferase activity was determined 24 hours later with the Dual-Glo Luciferase Assay System (Promega) and read using a Wallac EnVision plate reader (Perkin Elmer). […]

SMO-D384N [1] = biological target: T2, SMO-D384N (Homo sapiens, UniProt Q99835, D384N); assay: as above; assay type: cell-based; conditions: 1 μM vismodegib, FIG. 13C
T2 construct: expressed in transfected cells; host or cells: C3H10T½ cells (mouse)
T2 sequence (Q99835 28-787 D384N): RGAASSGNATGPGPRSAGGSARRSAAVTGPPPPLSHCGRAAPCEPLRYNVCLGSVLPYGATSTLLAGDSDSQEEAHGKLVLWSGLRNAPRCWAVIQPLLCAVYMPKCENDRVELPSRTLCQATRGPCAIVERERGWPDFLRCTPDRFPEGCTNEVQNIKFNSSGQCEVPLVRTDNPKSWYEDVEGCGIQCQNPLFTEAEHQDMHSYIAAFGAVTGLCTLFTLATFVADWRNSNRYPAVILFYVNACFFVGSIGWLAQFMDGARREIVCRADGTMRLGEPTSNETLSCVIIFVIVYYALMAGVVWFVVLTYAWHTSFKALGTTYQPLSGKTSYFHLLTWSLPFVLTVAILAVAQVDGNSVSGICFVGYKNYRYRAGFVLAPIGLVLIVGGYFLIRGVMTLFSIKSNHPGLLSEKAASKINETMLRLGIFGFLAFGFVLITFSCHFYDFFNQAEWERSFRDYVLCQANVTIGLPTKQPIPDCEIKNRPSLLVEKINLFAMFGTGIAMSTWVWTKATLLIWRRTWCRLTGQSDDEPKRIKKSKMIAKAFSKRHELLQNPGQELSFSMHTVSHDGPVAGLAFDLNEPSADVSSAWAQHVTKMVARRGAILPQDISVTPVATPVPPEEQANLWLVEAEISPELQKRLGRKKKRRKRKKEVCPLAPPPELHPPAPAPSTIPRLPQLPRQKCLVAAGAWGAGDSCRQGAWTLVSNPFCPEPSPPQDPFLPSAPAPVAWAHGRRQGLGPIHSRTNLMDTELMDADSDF
Method: as §1
as §2, with “Elmer). Values were divided by renilla luciferase activities to normalize for transfection efficiency. Individual experiments were carried out in duplicate or triplicate and repeated at least once. Dose response data were fit to a 4-parameter equation in GraphPad Prism:” for “Elmer).”
(§3) The top and bottom (B) values were constrained to be […] for each sample. ‘H’ is the Hill Slope.

SMO-N219D [2] = biological target: T3, SMO-N219D (Homo sapiens, UniProt Q99835, N219D); assay: as above; assay type: cell-based; conditions: 1 μM vismodegib, FIG. 13C
T3 construct: expressed in transfected cells; host or cells: C3H10T½ cells (mouse)
T3 sequence (Q99835 28-787 N219D): as the sequence (Q99835 28-787 D384N) above, with N192D, N357D counted along it
Method: as §1
as §2, with “Elmer). Values were divided by renilla luciferase activities to normalize for transfection efficiency. Individual experiments were carried out in duplicate or triplicate and repeated at least once. Dose response data were fit to a 4-parameter equation in GraphPad Prism:” for “Elmer).”
as §3

SMO-S387N [3] = biological target: T4, SMO-S387N (Homo sapiens, UniProt Q99835, S387N); assay: as above; assay type: cell-based; conditions: 1 μM vismodegib, FIG. 13C
T4 construct: expressed in transfected cells; host or cells: C3H10T½ cells (mouse)
T4 sequence (Q99835 28-787 S387N): as the sequence (Q99835 28-787 D384N) above, with N357D, S360N counted along it
Method: as §1
as §2, with “Elmer). Values were divided by renilla luciferase activities to normalize for transfection efficiency. Individual experiments were carried out in duplicate or triplicate and repeated at least once. Dose response data were fit to a 4-parameter equation in GraphPad Prism:” for “Elmer).”
as §3

SMO-I408V = biological target: T5, SMO-I408V (Homo sapiens, UniProt Q99835, I408V); assay: [3H]-vismodegib binding to HEK-293 cells transfected with SMO constructs; conditions: 5 nM [3H]-vismodegib, cell surface levels similar to SMO-WT, FIG. 12B
T5 construct: expressed in transfected cells; host or cells: HEK-293 cells
T5 sequence (Q99835 28-787 I408V): as the sequence (Q99835 28-787 D384N) above, with N357D, I381V counted along it
Method: as §1
(§4) 2×10E6 HEK-293 cells were seeded into 10-cm plates and transfected 16 hours later with 3 μg of either empty vector or SMO expression construct using GeneJuice (Novagen). Cells were harvested 40 hours later in PBS with 1 mM EDTA and fixed in PBS with 4% PFA for 10 minutes at room temperature (RT), after which they were washed 3× in PBS with 1 mM EDTA and plated into 96-well plates at 100,000 cells per well. […] of MicroScint fluid (Perkin Elmer) was added per well and counts per minute were assessed using a PerkinElmer TopCount NXT. All samples were analyzed in triplicate.

activating SMO mutants = assay: as above; set-up: species or system human; conditions: all activating mutants tested; cell surface expression comparable to SMO-WT; FIG. 15C
Method: as §1, §4

[4] = system: PPT CGNPs infected with SMO DBP mutations; assay: methyl-[3H]-thymidine incorporation (proliferation) of virally transduced PPT CGNPs after removal of SHH; assay type: cell-based, mice; conditions: all DBP mutations; high levels of vismodegib (>1 μM); FIG. 12D
Source text: (§5) It has previously been noted that Hh-driven tumor cells rapidly lose their Hh pathway dependence during culturing (Sasai et al., 2006). However, CGNPs proliferate in vivo in a Hh dependent manner and maintain their Hh pathway dependence in culture for a finite period (Wechsler-Reya and Scott, 1999). CGNPs isolated from Ptch1loxp/loxp Tp53loxp/loxp Rosa26LSL-tdTomato (PPT) pups were infected with lentiviral constructs expressing a SMO variant together with an enhanced green fluorescent protein (eGFP)-Cre fusion protein (FIG. 12C). The Cre recombinase induces loss of Ptch1 and thus ensures that only transduced CGNPs can proliferate in the absence of exogenous Sonic hedgehog ligand (SHH; FIG. 11D). […] Proliferation by methyl-[3H]-thymidine incorporation was monitored, while Cre-dependent tandem dimer (td) Tomato expression enabled visualization and quantification of infected cells. This system also enabled better model patient genetics because most of the SMO mutations were identified in tumors that harbored TP53 mutations and were driven by loss of PTCH1. […] It was confirmed that CGNPs were infected at similar frequencies by fluorescence-activated cell sorting (FACS) analysis for Cre-dependent tdTomato reporter expression, and that the SMO variants were expressed at equivalent levels by quantitative reverse transcription (qRT) PCR.
(§6) Cerebella from post-natal day 5-7 Ptch1^loxp/loxp Rosa26^LSLtdTomato Tp53^loxp/loxp mice were dissociated in 0.05% Trypsin for 10 min at 37° C. Cells were collected by centrifugation at 514×g for 10 min at 4° C., resuspended in CGNP media (Neurobasal medium (Life Technologies) containing 1×B27 (without vitamin A; Life Technologies), 0.45% glucose (Sigma Aldrich), 25 mM KCl, 0.4% bovine serum albumin (Sigma Aldrich), 2 mM glutamine, 100 U/ml Penicillin (Life Technologies), 100 μg/ml Streptomycin (Life Technologies), 200 ng/ml octylated recombinant SHH) and filtered through a 0.45 μm filter (Falcon). Cells were plated in poly-D-lysine coated 6-well plates (Corning) at 5×10E5 cells/well and infected with lentivirus at a multiplicity of infection (MOI) of 1. After 24 hr, cells were harvested by trypsinization, collected in CGNP media and replated for downstream applications.
(§7) To examine the effects of HPIs on proliferation, virally transduced CGNPs were plated in poly-D-lysine-coated 96-well plates (Corning) at 25,000 cells/well in CGNP media without SHH. […] After 24 hr, cells were pulsed with 1 μCi/ml methyl-[^3H]-thymidine (Amersham/GE Healthcare) and cultured for an additional 16-24 hr. Cells were harvested onto 96-well filter plates (Perkin Elmer) using a Filtermate Cell Harvester (Perkin Elmer), and incorporated radioactivity was quantified by liquid scintillation spectrophotometry on a TopCount NXT (PerkinElmer).

[5] = system: PPT CGNPs infected with SMO-C469Y; assay: as above; assay type: cell-based, mice; conditions: 5 μM vismodegib
Source text: as §5, §6, §7

[6] = system: PPT CGNPs infected with SMO-WT and Cre; assay: as above; assay type: cell-based, mice
Source text: as §5, §6, §7

[7] = system: SMO-A459V expressing CGNPs; assay: as above; assay type: cell-based, mice; conditions: high concentrations of vismodegib, FIGS. 14D and 15E
Source text: (§8) It has previously been noted that Hh-driven tumor cells rapidly lose their Hh pathway dependence during culturing (Sasai et al., 2006). However, CGNPs proliferate in vivo in a Hh dependent manner and maintain their Hh pathway dependence in culture for a finite period (Wechsler-Reya and Scott, 1999). CGNPs isolated from Ptch1loxp/loxp Tp53loxp/loxp Rosa26LSL-tdTomato (PPT) pups were infected with lentiviral constructs expressing a SMO variant together with an enhanced green fluorescent protein (eGFP)-Cre fusion protein (FIG. 12C). The Cre recombinase induces loss of Ptch1 and thus ensures that only transduced CGNPs can proliferate in the absence of exogenous Sonic hedgehog ligand (SHH; FIG. 11D). […] Proliferation by methyl-[3H]-thymidine incorporation was monitored, while Cre-dependent tandem dimer (td) Tomato expression enabled visualization and quantification of infected cells.
as §6, with “After 24 hr, cells were harvested by trypsinization, collected in CGNP media and replated for downstream applications.” left out
(§9) To examine the effects of HPIs on proliferation, virally transduced CGNPs were plated in poly-D-lysine-coated 96-well plates (Corning) at 25,000 cells/well in CGNP media without SHH. […] Cells were harvested onto 96-well filter plates (Perkin Elmer) using a Filtermate Cell Harvester (Perkin Elmer), and incorporated radioactivity was quantified by liquid scintillation spectrophotometry on a TopCount NXT (PerkinElmer).

[8] = system: SMO-T241M expressing CGNPs; assay: as above; assay type: cell-based, mice; conditions: high concentrations of vismodegib, FIGS. 14D and 15E
Source text: as §8
as §6, with “After 24 hr, cells were harvested by trypsinization, collected in CGNP media and replated for downstream applications.” left out
as §9

[9] = system: SMOW535L expressing CGNPs; assay: as above; assay type: cell-based, mice; conditions: high concentrations of vismodegib, FIGS. 14D and 15E
Source text: as §8
as §6, with “After 24 hr, cells were harvested by trypsinization, collected in CGNP media and replated for downstream applications.” left out
as §9

SMO-L515A = SMO-L515A (Homo sapiens, UniProt Q99835, L515A); conditions: L515A expressed, activating; 1 mM vismodegib; cited from earlier work
Sequence of SMO-L515A (Q99835 28-787 L515A): as the sequence (Q99835 28-787 D384N) above, with N357D, L488A counted along it

SMO-E518K and E518A = conditions: cited from earlier work
[10] = system: SMO-D473 mutants (all aa except P); conditions: cited from earlier work
SMO-D473H = SMO-D473H (Homo sapiens, UniProt Q99835, D473H); conditions: cited from earlier work
Sequence of SMO-D473H (Q99835 28-787 D473H): as the sequence (Q99835 28-787 D384N) above, with N357D, D446H counted along it

[11] = system: metastatic and locally advanced BCC; conditions: cited from earlier work
medulloblastoma = conditions: initial response; no durable response, relapse of the tumor; cited from earlier work
SMO-N219D [12] = conditions: cited from earlier work
SMO-L221R = conditions: cited from earlier work
SMO-D384N [13] = conditions: cited from earlier work
SMO-S387N [14] = conditions: cited from earlier work
[15] = system: PPT CGNPs expressing vismodegib-resistant SMO mutants; assay: methyl-[3H]-thymidine incorporation (proliferation) of virally transduced PPT CGNPs after removal of SHH; assay type: cell-based, mice; conditions: 1 μM JQ1; FIG. 16B
Source text: as §5, §6, §7

T1 sequence (Q99835 28-787 A459V): as the sequence (Q99835 28-787 D384N) above, with N357D, A432V counted along it

CS(=O)(=O)c1ccc(C(=O)Nc2ccc(Cl)c(-c3ccccn3)c2)c(Cl)c1 [vismodegib]
sensitivity to vismodegib (SMO-A459V): decreased sensitivity | sensitivity to vismodegib compared to SMO-WT (SMO-D384N [1]): reduced sensitivity; also recorded: D384N reduced | sensitivity to vismodegib compared to SMO-WT (SMO-N219D [2]): reduced sensitivity; also recorded: N219D reduced | sensitivity to vismodegib compared to SMO-WT (SMO-S387N [3]): reduced sensitivity; also recorded: S387N reduced | binding of [3H]-labeled vismodegib (SMO-I408V): impaired | vismodegib binding (activating SMO mutants): impaired | proliferation in the presence of vismodegib [4]: continuing to proliferate | proliferation in the presence of vismodegib [5]: continued to proliferate at near untreated levels | IC50 ([6]; Mus musculus, SMO-WT and Cre, FIG. 12D): ~22 nM | vismodegib concentration at which proliferation was maximally inhibited ([6]; SMO-WT and Cre): 100 nM | proliferation in the presence of vismodegib [7]: continued to proliferate | proliferation in the presence of vismodegib [8]: continued to proliferate | proliferation in the presence of vismodegib [9]: continued to proliferate | inhibition by vismodegib (SMO-L515A): activating, sensitive | sensitivity to vismodegib (SMO-E518K and E518A): reduced sensitivity to | sensitivity to vismodegib [10]: reduce sensitivity to | drug binding in vitro (SMO-D473H): abrogate drug binding | clinical response of BCC patients treated with vismodegib ([11]; majority of BCC patients, complete and partial responses): clinical benefit | advanced BCC patients that develop resistance to vismodegib ([11]; within the first year of treatment, preliminary estimate): up to 20% | response of a patient to treatment (medulloblastoma): dramatic response

Cc1c(C(=O)Nc2ccc(N3C[C@@H](C)O[C@@H](C)C3)nc2)cccc1-c1ccc(OC(F)(F)F)cc1 [LDE-225]
sensitivity to LDE-225 (SMO-N219D [12]): N219D reduced | sensitivity to LDE-225 (SMO-L221R): L221R reduced | sensitivity to LDE-225 (SMO-D384N [13]): D384N reduced | sensitivity to LDE-225 (SMO-S387N [14]): S387N reduced

Cc1sc2c(c1C)C(c1ccc(Cl)cc1)=N[C@@H](CC(=O)OC(C)(C)C)c1nnc(C)n1-2 [JQ1]
proliferation of PPT CGNPs expressing vismodegib-resistant SMO mutants [15]: reduced proliferation | residual proliferation in SMO-WT ([6]; 1 μM JQ1 compared with 1 μM vismodegib, FIG. 16B): less residual proliferation

From US10330683B2, “Mutant smoothened and methods of using the same” (Genentech, Inc., priority 2015, dated 2019)
